Measurements: article PMC11674141, “Antimicrobial activity and synergistic effect of phage-encoded antimicrobial peptides with colistin and outer membrane permeabilizing agents against Acinetobacter baumannii” (PeerJ, 2024)
≈ marks a conversion by molar mass, not a printed value. Read-outs that look alike come from different tables or passages of the source. Where a SMILES comes first, the peptide text is derived from it. Bridges are numbered along the chain shown (N, C = ends). Where no end group is shown, it is not given here. [ ]: non-standard residue; d: D form. The star is where a group is joined. X1 = CC[C@H](C)CCCCC(=O)*; Dab = NCC[C@H](N)C(=O)O

What was measured:
A. baumannii ATCC19606 [1] = experiment: microbe, parasite or virus in culture; details: Acinetobacter baumannii, ATCC19606, read-out: MIC alone
A. baumannii ATCC19606 [2] = details: for MIC values of outer membrane permeabilizers and colistin: A. baumannii 19606; for MIC values of outer membrane permeabilizers and colistin / MIC values: microdilution, triplicate samples; for MIC values: A. baumannii 19,606, MHB, 37 °C overnight; for MIC (ATCC19606): A. baumannii ATCC19606
HepG2 cell line = experiment: MTT cell viability assay; type: cell-based, human; design: key to Mean cell viability (Mean 2; control = 100): % viability relative to control (control = 100%); details: for Mean cell viability (Mean 2; control = 100): mean of n = 3
Description: We aimed to determine the effects of peptides on cell viability and proliferation in the human hepatocellular carcinoma HepG2 cell line. The MTT assay was performed as described by [Muangpat et al. (2022)] with some modifications. The cells were cultured in Dulbecco’s Modified Eagle Medium (DMEM; Sigma-Aldrich, St. Louis, MO, USA), supplemented with 10% fetal bovine serum (FBS), 100 U/ml penicillin, and 100 μg/ml streptomycin at 37 °C in 5% CO^2 and 95% humidity. The cells were seeded into a 96-well plate at a density of 1 × 10^4 cells/well and allowed to adhere overnight. Then, the cells were exposed for 24 h to various concentrations of peptides. The control cells were cultured in complete DMEM medium containing 0.2% DMSO. After the 24-h incubation period, 20 μL of MTT solution (5 mg/mL in PBS) (Tokyo Chemical Industry Co., Ltd., Tokyo, Japan) was added to each well and incubated for another 2 h at 37 °C. The culture medium was then removed, and formazan crystals formed by viable cells were dissolved in 100 μL of DMSO before measuring the absorbance at 590 nm using a microplate spectrophotometer. The effect of the peptide on cell viability was calculated as a percentage of the control, which was arbitrarily assigned a value of 100% viability. The percentage of cell viability was calculated relative to the control group. The IC₅₀ of the peptides was defined as the concentration that caused a 50% reduction in cell viability compared with the control. The MTT assay was conducted in three independent experiments, each with triplicate wells per condition.

Bacillus subtilis = details: B. subtilis, sensitive
[3] = tested on: twenty biofilm-forming A. baumannii strains; experiment: Inhibition of biofilm formation (crystal violet); type: cell-based, Acinetobacter baumannii; design: Percent biofilm forming inhibition: concentration or dose not given beside the values
Description: We determined the ability of peptides to inhibit biofilm formation in twenty biofilm-forming strains using the method described by [Karyne et al. (2020)] with some modifications. Briefly, biofilm-forming strains of A. baumannii were adjusted to an equivalent of the 0.5 McFarland standard in 2× Luria Bertani (LB) broth supplemented with 20% glucose. Then, 50 µL of A. baumannii and 50 µL of peptides were added. […] The plates were incubated overnight at 37 °C. After 24 h of incubation, the culture medium was gently removed, and the wells were washed three times with phosphate-buffered saline. The adherent cells were fixed with absolute methanol for 10 min, stained with 0.4% crystal violet for 15 min, and washed three times with sterile distilled water, then air-dried. The plates were then filled with 250 µL of 33% acetic acid for 15 min. The absorbance at OD595 nm was determined. All experiments were performed in three independent assays, each repeated in triplicate, and the percentage of biofilm reduction was calculated based on treated wells vs. non-treated wells.

Escherichia coli = details: E. coli, sensitive
Klebsiella pneumoniae = details: K. pneumoniae, sensitive
A. baumannii ATCC19606 [4] = details: for MIC alone: ATCC19606, checkerboard, agent alone
Pseudomonas aeruginosa = details: P. aeruginosa, sensitive
Staphylococcus aureus = details: S. aureus, sensitive

Molecule: O=C(O)CC(O)(CC(=O)O)C(=O)O [Citric acid, reference compound]
- MIC (A. baumannii ATCC19606 [1]): 5000 µg/mL (≈ 26 mM)
- MIC values of outer membrane permeabilizers and colistin (A. baumannii ATCC19606 [2]): 5000 µg/mL

Molecule: KIAIQIAIKGMLNGWFTGVGFRRKR [PE04-2]
- IC50 (reduction of viable cells to 50%) (HepG2 cell line; 24 h, three independent experiments): 424.1 µg/mL
- Mean cell viability (Mean 2; control = 100) (HepG2 cell line; peptide concentration 25 (unit not given)): 90.16
- Mean cell viability (Mean 2; control = 100) (HepG2 cell line; peptide concentration 50 (unit not given)): 91.63
- Mean cell viability (Mean 2; control = 100) (HepG2 cell line; peptide concentration 156.25 (unit not given)): 79.64
- Mean cell viability (Mean 2; control = 100) (HepG2 cell line; peptide concentration 300 (unit not given)): 71.67
- Mean cell viability (Mean 2; control = 100) (HepG2 cell line; peptide concentration 600 (unit not given)): 32.89
- Mean cell viability (Mean 2; control = 100) (HepG2 cell line; peptide concentration 800 (unit not given)): 14.6
- Minimum Inhibitory Concentration (MIC) (MDR-AB, XDR-AB; strain AB003, MDR-AB): 78.12 µg/mL
- Minimum Inhibitory Concentration (MIC) (MDR-AB, XDR-AB; strain AB183, XDR-AB): 78.12 µg/mL
- Minimum Inhibitory Concentration (MIC) (MDR-AB, XDR-AB; strain AB329, XDR-AB): 156.25 µg/mL
- Minimum Inhibitory Concentration (MIC) (MDR-AB, XDR-AB; strain CR89, MDR-AB): 156.25 µg/mL
- Minimum Inhibitory Concentration (MIC) (Bacillus subtilis): 39.06 µg/mL
- Minimum Inhibitory Concentration (MIC) (A. baumannii ATCC19606 [2]; A. baumannii 19606, sensitive): 156.25 µg/mL
- MIC values (A. baumannii ATCC19606 [2]): 156.25 µg/mL
- MIC (ATCC19606) (A. baumannii ATCC19606 [2]): 156.25 µg/mL
- Percent biofilm forming inhibition ([3]; strain AB57, XDR-AB / CR-AB, 2013): 92.3659%
- Percent biofilm forming inhibition ([3]; strain AB263, MDR-AB, 2014): 88.4382%
- average percent inhibition of biofilm formation ([3]; twenty A. baumannii strains, peptide at MIC (312.5, 156.25, 156.25 µg/mL), 24 h, crystal violet OD595): 91.92%
- Minimum Inhibitory Concentration (MIC) (Escherichia coli): 156.25 µg/mL
- Minimum Inhibitory Concentration (MIC) (Klebsiella pneumoniae): 312.5 µg/mL
- FIC index, peptide plus colistin (A. baumannii ATCC19606 [4]; ATCC19606): 0.14
- FICI (A. baumannii ATCC19606 [4]; ATCC19606): 0.25
- Minimum Inhibitory Concentration (MIC) (Pseudomonas aeruginosa): 312.5 µg/mL
- Minimum Inhibitory Concentration (MIC) (Staphylococcus aureus): 39.06 µg/mL

Molecule: CC[C@H](C)CCCCC(=O)N[C@@H](CCN)C(=O)N[C@H](C(=O)N[C@@H](CCN)C(=O)N[C@H]1CCNC(=O)[C@H]([C@@H](C)O)NC(=O)[C@H](CCN)NC(=O)[C@H](CCN)NC(=O)[C@H](CC(C)C)NC(=O)[C@@H](CC(C)C)NC(=O)[C@H](CCN)NC1=O)[C@@H](C)O [Colistin] (X1-[Dab]T[Dab][Dab][Dab][dL]L[Dab][Dab]T; lactam 4-C (inferred); N-terminus assumed)
- Colistin Resistance MIC (MDR-AB, XDR-AB; strain AB57, XDR-AB / CR-AB): 1 µg/mL
- Colistin Resistance MIC (MDR-AB, XDR-AB; strain AB59, XDR-AB / CR-AB): 0.5 µg/mL
- Colistin Resistance MIC (MDR-AB, XDR-AB; strain AB329, XDR-AB / CR-AB): 1 µg/mL
- Colistin Resistance MIC (MDR-AB, XDR-AB; strain CR65-40, MDR-AB / CR-AB): 8 µg/mL
- Colistin Resistance MIC (MDR-AB, XDR-AB; strain CR65-43, XDR-AB / CR-AB): 4 µg/mL
- Colistin Resistance MIC (MDR-AB, XDR-AB; strain CR65-47, MDR-AB / CR-AB): 2 µg/mL
- Colistin Resistance MIC (MDR-AB, XDR-AB; strain CR65-51, XDR-AB / CR-AB): 2 µg/mL
- Colistin Resistance MIC (MDR-AB, XDR-AB; strain CR65-55, MDR-AB / CR-AB): 2 µg/mL
- Colistin Resistance MIC (MDR-AB, XDR-AB; strain CR65-71, MDR-AB / CR-AB): 4 µg/mL
- Colistin Resistance MIC (MDR-AB, XDR-AB; strain CR65-74, XDR-AB / CR-AB): 2 µg/mL
- MIC values of outer membrane permeabilizers and colistin (A. baumannii ATCC19606 [2]): 2 µg/mL
- MIC alone (A. baumannii ATCC19606 [4]): 2 µg/mL

Molecule: LIAIQIAIKGMLNGWFTGVGFRRKR-NH2 [PE04-1-NH2]
- MIC alone (A. baumannii ATCC19606 [4]): 156.25 µg/mL

Molecule: ENMRNRKWNSTDTVMRRSRFQRYLR [PTTPAT04]
- MIC values (A. baumannii ATCC19606 [2]): 2,500 ug/ml
- MIC (ATCC19606) (A. baumannii ATCC19606 [2]): 2500 µg/mL

Molecule: O=C(O)CC(O)C(=O)O (racemic) [DL-Malic acid, reference compound]
- MIC values of outer membrane permeabilizers and colistin (A. baumannii ATCC19606 [2]): 2500 µg/mL
